Data as given in ChEMBL document CHEMBL1201862, “PubChem BioAssay data set” (2004).
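Dose response: 5 concentrations. Exposure: 48 h. Format: 96-well plates. Endpoint: linear interpolation; highest concentration if not reached. GI50 is the concentration that inhibits growth by half.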 The source made the active and inactive calls. Cut-off read from the data, not from the text of the source: active = GI50 up to about 1.1 µM and inactive = higher.

Key:
Assay in all cases: inhibition of tumour cell growth, NCI panel, 48 h
786-0 = test system: 786-0
A549 = test system: A549
ACHN = test system: ACHN
BT-549 = test system: BT-549
CAKI-1 = test system: CAKI-1
CCRF-CEM = test system: CCRF-CEM
COLO 205 = test system: COLO 205
DU-145 = test system: DU-145
EKVX = test system: EKVX
HCC 2998 = test system: HCC 2998
HCT-116 = test system: HCT-116
HCT-15 = test system: HCT-15
HL-60 = test system: HL-60
HOP-62 = test system: HOP-62
HOP-92 = test system: HOP-92
HT-29 = test system: HT-29
Hs-578T = test system: Hs-578T
IGROV-1 = test system: IGROV-1
K562 = test system: K562
KM12 = test system: KM12
LOX IMVI = test system: LOX IMVI
M14 = test system: M14
MCF7 = test system: MCF7
MDA-MB-231 = test system: MDA-MB-231
MDA-MB-435 = test system: MDA-MB-435
MDA-N = test system: MDA-N
MOLT-4 = test system: MOLT-4
NCI-H226 = test system: NCI-H226
NCI-H23 = test system: NCI-H23
NCI-H460 = test system: NCI-H460
NCI-H522 = test system: NCI-H522
NCI/ADR-RES = test system: NCI/ADR-RES
OVCAR-3 = test system: OVCAR-3
OVCAR-4 = test system: OVCAR-4
OVCAR-5 = test system: OVCAR-5
OVCAR-8 = test system: OVCAR-8
PC-3 = test system: PC-3
RPMI-8226 = test system: RPMI-8226
RXF 393 = test system: RXF 393
SF-268 = test system: SF-268
SF-295 = test system: SF-295
SF-539 = test system: SF-539
SK-MEL-28 = test system: SK-MEL-28
SK-MEL-2 = test system: SK-MEL-2
SK-MEL-5 = test system: SK-MEL-5
SK-OV-3 = test system: SK-OV-3
SN12C = test system: SN12C
SNB-19 = test system: SNB-19
SNB-75 = test system: SNB-75
SR = test system: SR
SW-620 = test system: SW-620
T47D = test system: T47D
TK-10 = test system: TK-10
U-251 = test system: U-251
UACC-257 = test system: UACC-257
UACC-62 = test system: UACC-62
UO-31 = test system: UO-31
Malme-3M = test system: Malme-3M

CC1(C)CC2C=C(C=O)C3(C=O)CC3(C)C2C1 (stereo not drawn)
GI50 (786-0): 1.52 µM (inactive)
GI50 (A549): 10.2 µM (inactive)
GI50 (ACHN): 1.49 µM (inactive)
GI50 (BT-549): 1.81 µM (inactive)
GI50 (CAKI-1): 2.05 µM (inactive)
GI50 (CCRF-CEM): 0.0468 µM (active)
GI50 (COLO 205): 1.89 µM (inactive)
GI50 (DU-145): 5.45 µM (inactive)
GI50 (EKVX): 3.4 µM (inactive)
GI50 (HCC 2998): 5.5 µM (inactive)
GI50 (HCT-116): 0.847 µM (active)
GI50 (HCT-15): 1.64 µM
GI50 (HL-60): 0.0333 µM (active)
GI50 (HOP-62): 2.09 µM (inactive)
GI50 (HOP-92): 1.95 µM (inactive)
GI50 (HT-29): 1.41 µM (inactive)
GI50 (Hs-578T): 2.24 µM (inactive)
GI50 (IGROV-1): 2.15 µM (inactive)
GI50 (K562): 1.1 µM (active)
GI50 (KM12): 4.39 µM (inactive)
GI50 (LOX IMVI): 1.34 µM (inactive)
GI50 (M14): 2.29 µM (inactive)
GI50 (MCF7): 1.34 µM (inactive)
GI50 (MDA-MB-231): 1.91 µM (inactive)
GI50 (MDA-MB-435): 1.75 µM (inactive)
GI50 (MDA-N): 2.9 µM (inactive)
GI50 (MOLT-4): 0.191 µM (active)
GI50 (NCI-H226): 4.21 µM (inactive)
GI50 (NCI-H23): 1.83 µM (inactive)
GI50 (NCI-H460): 4.44 µM (inactive)
GI50 (NCI-H522): 1.09 µM (active)
GI50 (NCI/ADR-RES): 1.76 µM (inactive)
GI50 (OVCAR-3): 0.944 µM (active)
GI50 (OVCAR-4): 1.73 µM (inactive)
GI50 (OVCAR-5): 1.79 µM (inactive)
GI50 (OVCAR-8): 1.95 µM (inactive)
GI50 (PC-3): 1.12 µM (active)
GI50 (RPMI-8226): 0.378 µM (active)
GI50 (RXF 393): 1.94 µM (inactive)
GI50 (SF-268): 3.88 µM (inactive)
GI50 (SF-295): 4.5 µM (inactive)
GI50 (SF-539): 1.95 µM (inactive)
GI50 (SK-MEL-28): 2.06 µM (inactive)
GI50 (SK-MEL-2): 2.07 µM (inactive)
GI50 (SK-MEL-5): 1.64 µM (inactive)
GI50 (SK-OV-3): 3.43 µM (inactive)
GI50 (SN12C): 2.54 µM (inactive)
GI50 (SNB-19): 11.8 µM (inactive)
GI50 (SNB-75): 1.89 µM (inactive)
GI50 (SR): 0.218 µM (active)
GI50 (SW-620): 0.582 µM (active)
GI50 (T47D): 1.33 µM (inactive)
GI50 (TK-10): 2.39 µM (inactive)
GI50 (U-251): 1.79 µM (inactive)
GI50 (UACC-257): 2.38 µM (inactive)
GI50 (UACC-62): 5.46 µM (inactive)
GI50 (UO-31): 1.69 µM (inactive)

CC(=O)OCC1OC(n2c(-c3ccc(Cl)cc3)cc(-c3ccccc3)c(C#N)c2=S)C(OC(C)=O)C(OC(C)=O)C1OC(C)=O (stereo not drawn)
GI50 (786-0): 12.2 µM (inactive)
GI50 (A549): 14.5 µM (inactive)
GI50 (ACHN): 13.5 µM (inactive)
GI50 (BT-549): 5.01 µM (inactive)
GI50 (CAKI-1): 13.9 µM (inactive)
GI50 (COLO 205): 13.2 µM (inactive)
GI50 (DU-145): 15.7 µM (inactive)
GI50 (EKVX): 17.7 µM (inactive)
GI50 (HCC 2998): 7.14 µM (inactive)
GI50 (HCT-116): 6.11 µM (inactive)
GI50 (HCT-15): 29.9 µM
GI50 (HL-60): 3.18 µM (inactive)
GI50 (HOP-62): 7.85 µM (inactive)
GI50 (HOP-92): 19.6 µM (inactive)
GI50 (HT-29): 7.06 µM (inactive)
GI50 (Hs-578T): 2.71 µM (inactive)
GI50 (IGROV-1): 13.1 µM (inactive)
GI50 (K562): 3.66 µM (inactive)
GI50 (KM12): 18.5 µM (inactive)
GI50 (LOX IMVI): 4.29 µM (inactive)
GI50 (M14): 4.98 µM (inactive)
GI50 (MCF7): 17.3 µM (inactive)
GI50 (MDA-MB-231): 4.33 µM (inactive)
GI50 (MDA-MB-435): 12.7 µM (inactive)
GI50 (MDA-N): 11.3 µM (inactive)
GI50 (MOLT-4): 12.8 µM (inactive)
GI50 (Malme-3M): 2.87 µM (inactive)
GI50 (NCI-H226): 4.28 µM (inactive)
GI50 (NCI-H23): 14.2 µM (inactive)
GI50 (NCI-H460): 5.78 µM (inactive)
GI50 (NCI-H522): 18.1 µM (inactive)
GI50 (NCI/ADR-RES): 6.71 µM (inactive)
GI50 (OVCAR-3): 10.6 µM (inactive)
GI50 (OVCAR-4): 1.79 µM (inactive)
GI50 (OVCAR-5): 19.6 µM (inactive)
GI50 (OVCAR-8): 10 µM (inactive)
GI50 (PC-3): 11.3 µM (inactive)
GI50 (RPMI-8226): 8.91 µM (inactive)
GI50 (RXF 393): 13.3 µM (inactive)
GI50 (SF-268): 10.8 µM (inactive)
GI50 (SF-295): 11.5 µM (inactive)
GI50 (SF-539): 3.99 µM (inactive)
GI50 (SK-MEL-28): 6.5 µM (inactive)
GI50 (SK-MEL-5): 11.4 µM (inactive)
GI50 (SK-OV-3): 12.6 µM (inactive)
GI50 (SN12C): 11.2 µM (inactive)
GI50 (SNB-19): 8.53 µM (inactive)
GI50 (SNB-75): 8.13 µM (inactive)
GI50 (SR): 10.7 µM (inactive)
GI50 (SW-620): 3.3 µM (inactive)
GI50 (T47D): 18.7 µM (inactive)
GI50 (TK-10): 27.4 µM (inactive)
GI50 (U-251): 8.67 µM (inactive)
GI50 (UACC-62): 3.85 µM (inactive)
GI50 (UO-31): 23.5 µM (inactive)

COC(=O)[C@H](Cc1ccccc1)NC(=O)CCCCCCC(=O)NO
GI50 (786-0): 28.6 µM (inactive)
GI50 (A549): 44.5 µM (inactive)
GI50 (ACHN): > 100 µM (inactive)
GI50 (BT-549): > 100 µM (inactive)
GI50 (CAKI-1): 28.3 µM (inactive)
GI50 (CCRF-CEM): 2.67 µM (inactive)
GI50 (COLO 205): 54.5 µM (inactive)
GI50 (DU-145): 7.23 µM (inactive)
GI50 (EKVX): > 100 µM (inactive)
GI50 (HCC 2998): 16.1 µM (inactive)
GI50 (HCT-116): 5.15 µM (inactive)
GI50 (HCT-15): 56.4 µM
GI50 (HL-60): 6.01 µM (inactive)
GI50 (HOP-92): 17.3 µM (inactive)
GI50 (HT-29): 17.6 µM (inactive)
GI50 (Hs-578T): 12.6 µM (inactive)
GI50 (IGROV-1): 17.7 µM (inactive)
GI50 (K562): 6.53 µM (inactive)
GI50 (KM12): 28.8 µM (inactive)
GI50 (LOX IMVI): 15.4 µM (inactive)
GI50 (M14): 20.9 µM (inactive)
GI50 (MCF7): 46.1 µM (inactive)
GI50 (MDA-MB-231): 21.6 µM (inactive)
GI50 (MDA-MB-435): 13.5 µM (inactive)
GI50 (MDA-N): 19 µM (inactive)
GI50 (MOLT-4): 2.7 µM (inactive)
GI50 (Malme-3M): 2.65 µM (inactive)
GI50 (NCI-H226): 75.3 µM (inactive)
GI50 (NCI-H23): 26.4 µM (inactive)
GI50 (NCI-H460): 12.3 µM (inactive)
GI50 (NCI-H522): 4.68 µM (inactive)
GI50 (NCI/ADR-RES): 23.1 µM (inactive)
GI50 (OVCAR-3): 10.7 µM (inactive)
GI50 (OVCAR-4): 39.8 µM (inactive)
GI50 (OVCAR-5): 4.18 µM (inactive)
GI50 (OVCAR-8): 5.28 µM (inactive)
GI50 (PC-3): 8.79 µM (inactive)
GI50 (RPMI-8226): 4.62 µM (inactive)
GI50 (RXF 393): 5.05 µM (inactive)
GI50 (SF-268): 12.3 µM (inactive)
GI50 (SF-295): 10.7 µM (inactive)
GI50 (SF-539): 20.6 µM (inactive)
GI50 (SK-MEL-28): > 100 µM (inactive)
GI50 (SK-MEL-2): 4.6 µM (inactive)
GI50 (SK-MEL-5): 8.91 µM (inactive)
GI50 (SK-OV-3): 15.2 µM (inactive)
GI50 (SN12C): > 100 µM (inactive)
GI50 (SNB-19): > 100 µM (inactive)
GI50 (SR): 4.89 µM (inactive)
GI50 (SW-620): 11.6 µM (inactive)
GI50 (T47D): 0.605 µM (active)
GI50 (TK-10): 13.8 µM (inactive)
GI50 (U-251): 17.3 µM (inactive)
GI50 (UACC-257): 10.1 µM (inactive)
GI50 (UACC-62): 11.5 µM (inactive)
GI50 (UO-31): 33.4 µM (inactive)
